Source: patent publication US6861217B1, “Variation in drug response related to polymorphisms in the β2-adrenergic receptor” (Genaissance Pharmaceuticals, Inc., priority 1998, dated 2005)

Tested on: patients with asthma
Assay: bronchodilating response (FEF25-75) to albuterol in patients with asthma by 5′LC genotype
Type: in vivo, human
Conditions: for patients exhibiting a bronchodilating response (increase in FEF25-75 greater than 12%): 180 micrograms aerosolized, 30 minutes
Text: For this study, 134 patients with asthma were enrolled to determine whether either of the polymorphisms at nucleic acid −47 in the β2AR gene alter the bronchodilating response to β-agonist. The percent (%) change in the forced expiratory flow between 25% and 75% of the forced vital capacity (FEF25-75) was used as a measure of responsiveness. Patients underwent pulmonary function testing to measure FEF25-75 and then received 2 puffs (total of 180 micrograms) of aerosolized albuterol by metered dose inhaler. Thirty minutes later the FEF25-75 measurement was repeated. Based on accepted national standards, an increase in FEF25-75 of greater than 12% was considered a response, while 12% or less was considered no response.

## CC(C)(C)NCC(O)c1ccc(O)c(CO)c1 (stereo not drawn) [albuterol]
TT genotype at the 5′LC PS
  patients exhibiting a bronchodilating response (increase in FEF25-75 greater than 12%): 28.8%
TT genotype versus TC or CC
  odds ratio for having no response: 2.47
Without TT genotype (TC or CC)
  patients exhibiting a bronchodilating response (increase in FEF25-75 greater than 12%): 71.1%
